Measured values reported in PubChem BioAssay (NCI).
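Growth conditions: 96-well plates. Treatment: test compound, 48 hours, 5 concentrations. Analysis: linear interpolation between bracketing concentrations; unreached endpoints set to highest concentration. GI50: concentration for 50% inhibition of growth. At the TGI there is no net growth.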

Legend:
Assay in all cases: DTP human tumour cell line panel, 48 h
CAKI-1 renal = tested on: CAKI-1 renal
SR leukemia = tested on: SR leukemia
K-562 leukemia = tested on: K-562 leukemia
NCI-H23 lung = tested on: NCI-H23 lung
M14 melanoma = tested on: M14 melanoma
NCI-H226 lung = tested on: NCI-H226 lung
HCC-2998 colon = tested on: HCC-2998 colon
SNB-75 CNS = tested on: SNB-75 CNS
MALME-3M melanoma = tested on: MALME-3M melanoma
SK-MEL-2 melanoma = tested on: SK-MEL-2 melanoma

| SMILES | TGI (CAKI-1 renal) [µM] | TGI (SR leukemia) [µM] | TGI (K-562 leukemia) [µM] | TGI (NCI-H23 lung) [µM] | TGI (M14 melanoma) [µM] | TGI (NCI-H226 lung) [µM] | TGI (HCC-2998 colon) [µM] | TGI (SNB-75 CNS) [µM] | TGI (MALME-3M melanoma) [µM] | GI50 (CAKI-1 renal) [nM] | GI50 (SR leukemia) [nM] | GI50 (K-562 leukemia) [nM] | GI50 (SK-MEL-2 melanoma) [µM] | TGI (SK-MEL-2 melanoma) [µM] | GI50 (NCI-H23 lung) [µM] | GI50 (M14 melanoma) [µM] | GI50 (NCI-H226 lung) [µM] | GI50 (HCC-2998 colon) [nM] | GI50 (SNB-75 CNS) [nM] | GI50 (MALME-3M melanoma) [µM] |
| --- | --- | --- | --- | --- | --- | --- | --- | --- | --- | --- | --- | --- | --- | --- | --- | --- | --- | --- | --- | --- |
| CC(C)C/C(CC(=O)CCC(=O)Nc1ccccc1[N+](=O)[O-])=N\NC(=O)c1cc2ccccc2cc1O | > 100 | > 100 | > 100 | > 100 | > 100 | > 100 | > 100 | > 100 | > 100 | – | – | – | – | – | – | – | – | – | – | – |
| CCC(CO)Nc1nc2ccc(Cl)cc2c2ccccc12 (stereo not drawn) | 14.6 | 13.5 | 11.5 | 25.9 | 25.6 | 31.7 | 10.6 | 18 | 29.3 | 2820 | 1570 | 3010 | 14.5 | 28.4 | 12.3 | 12.8 | 11.4 | 2820 | 4380 | 15.7 |
| N#CC(c1ccc(Cl)cc1)c1cccc(C(C#N)c2ccc(Cl)cc2)n1 (stereo not drawn) | > 100 | > 100 | > 100 | 57 | > 100 | > 100 | > 100 | 79.4 | > 100 | – | – | – | – | 83.2 | – | – | – | – | – | – |
| O=C1C(=O)N(c2ccc(Cl)cc2Cl)C(=O)C(=O)C1c1nc2ccccc2s1 | > 100 | 79.2 | > 100 | > 100 | > 100 | > 100 | > 100 | 81.8 | > 100 | – | – | – | – | > 100 | – | – | – | – | – | – |
| COc1ccc2c(c1)/C(=C/c1c(C)nc3sc(C)nn13)C(=O)N2 | > 100 | – | – | > 65.5 | > 27.9 | > 100 | 7.86 | 7.14 | > 100 | 2310 | 310 | 394 | 1.29 | 4.63 | 3.33 | 1.79 | > 28.4 | 632 | 1580 | – |
| CSc1nc2c(c(=O)[nH]1)N=C1c3ccccc3C(=O)C1C(c1ccccc1)N2 (stereo not drawn) | > 100 | > 100 | > 100 | > 100 | > 100 | > 100 | > 100 | 8.78 | > 100 | 2180 | 1510 | 1270 | 9.02 | > 100 | 5.82 | 3.29 | 4.2 | 6750 | 1270 | 2.33 |
| CN(C)CC[N+]1=Nc2cccc3cccc(c23)N1 | > 100 | 40.9 | > 63.4 | > 100 | > 100 | > 100 | > 100 | > 100 | > 100 | – | – | – | – | > 100 | – | – | – | – | – | – |
| Nc1ccccc1SC(C[N+](=O)[O-])c1ccc2c(c1)OCO2 (stereo not drawn) | 26.6 | 4.82 | 7 | 8.04 | 3.15 | 32.4 | 3.17 | 7.09 | 29.8 | – | – | – | – | 27.7 | – | – | – | – | – | – |
| CCCCCCCCCCCCCCCCCC(CCCCCCCCCCCCCCCCC)OP(=O)(O)O | > 100 | > 100 | > 100 | > 100 | > 100 | > 100 | > 100 | > 100 | > 100 | – | – | – | – | > 100 | – | – | – | – | – | – |
| O=C(CC1(O)C(=O)Nc2c(Cl)cc(Cl)cc21)c1ccc(Br)cc1Br (stereo not drawn) | 16.2 | > 22 | 9 | 21.2 | 18.5 | 34.8 | 30.6 | 36.6 | 23.7 | – | – | – | – | 28.9 | – | – | – | – | – | – |
| NC(Cc1c[nH]c2c(O)cccc12)C(=O)O (stereo not drawn) | > 100 | > 100 | > 100 | > 100 | > 100 | > 100 | > 100 | > 100 | > 100 | > 100000 | > 100000 | > 100000 | – | – | > 100 | > 100 | > 100 | > 100000 | > 100000 | > 100 |
| NC(=O)c1cccc2cn(-c3ccc([C@@H]4CCCNC4)cc3)nc12 | 20.2 | 12.5 | 36.8 | 45 | 26.3 | 30.1 | 34.3 | 25.5 | 30.5 | 5770 | 1940 | 14100 | 19.7 | 39.3 | 11.3 | 10.7 | 14.4 | 14100 | 11800 | 15.2 |
| O=C(/C=C/c1ccccc1)NC1C=Nc2ccc(Cl)cc2NC1=O (stereo not drawn) | > 100 | 56.3 | 59 | > 100 | 65.6 | > 100 | 65.5 | 62.9 | 85.1 | – | – | – | – | > 100 | – | – | – | – | – | – |
| CN1C(=O)C(C)(C)C2(SC(C)(C)C2(C)C)N(C)C1=S (stereo not drawn) | > 100 | > 100 | > 100 | > 100 | > 100 | > 100 | > 100 | > 100 | > 100 | – | – | – | – | > 100 | – | – | – | – | – | – |
| CCCCCN(CCCCC)CC(O)c1cc(C)c2ccc3cc(C(C)C)ccc3c2c1 (stereo not drawn) | 2.81 | 3.17 | 4.46 | 3.4 | 3.7 | 3.97 | 3.4 | 2.65 | 3.85 | 1400 | 836 | 2170 | 2.2 | 4.83 | 1.77 | 1.77 | 1.85 | 1850 | 1310 | 1.92 |
| Cc1nc2ccccc2c(=O)n1-c1ccccc1I | > 100 | > 100 | > 100 | > 100 | > 100 | > 100 | > 100 | > 100 | > 100 | – | – | – | – | > 100 | – | – | – | – | – | – |
| O=C1C2C(C(=O)N1OS(=O)(=O)c1ccccc1)N(Cc1ccccc1)C(=O)N2Cc1ccccc1 (stereo not drawn) | > 100 | > 100 | > 100 | > 100 | > 100 | > 100 | > 100 | > 100 | > 100 | – | – | – | – | – | – | – | – | – | – | – |
| CC12CCC(O)CC1CCC1C2CCC2(C)C(C3=CC(=O)OC3)CCC12O (stereo not drawn) | > 19.8 | > 100 | > 90.5 | 4.76 | 19 | 27.7 | 10.2 | 28.7 | 4.89 | – | – | – | – | 22.7 | – | – | – | – | – | – |
